Four compounds from patent US9657018B2, “Antagonists acting at multiple prostaglandin receptors for the treatment of inflammation” (Allergan, Inc., priority 2014, dated 2017) can be followed below.

Each structure is given as a SMILES string.

Common to all, as to assay type: cell-based
Assay [1] deals with T1, human prostanoid TP receptor (Homo sapiens, UniProt P21731).
T1 construct: expressed in transfected cells
T1 sequence (P21731 1-343): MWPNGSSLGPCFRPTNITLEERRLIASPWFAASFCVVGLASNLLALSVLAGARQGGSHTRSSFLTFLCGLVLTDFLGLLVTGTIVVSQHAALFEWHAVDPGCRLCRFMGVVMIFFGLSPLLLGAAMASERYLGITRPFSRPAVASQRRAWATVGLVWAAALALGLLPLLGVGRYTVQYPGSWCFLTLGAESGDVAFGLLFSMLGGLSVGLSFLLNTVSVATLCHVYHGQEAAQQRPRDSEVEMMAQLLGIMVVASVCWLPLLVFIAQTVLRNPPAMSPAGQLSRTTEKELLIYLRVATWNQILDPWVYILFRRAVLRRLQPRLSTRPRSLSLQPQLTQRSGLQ
Kind of assay: FLIPR Ca2+ signaling antagonist assay, TP receptor stable cell line. As to conditions: human recombinant TP in HEK-293 EBNA cells; standard agonist U-46619; NA = no antagonism or Kb>=10,000 nM. The method, then: (§1) The above compounds were tested for PG antagonist activity as follows using human recombinant prostanoid receptor (DP1, EP1-4, FP, IP and TP) stable cell lines:
(§2) In order to measure the response of Gs and Gi coupled prostanoid receptors as a Ca^2+ signal, chimeric G protein cDNAs were used. Stable cell lines over-expressing human prostanoid DP1, EP1-4, FP, IP, and TP receptors were established as follows:
(§3) Briefly, human prostanoid DP1, EP2, and EP4 receptor cDNAs were co-transfected with chimeric Gqs cDNA containing a haemagglutanin (HA) epitope; human prostanoid EP3 receptors were co-transfected with chimeric Gqi-HA; human EP1, FP, IP, and TP receptor cDNAs were expressed with no exogenous G-proteins. Gqs and Gqi chimeric cDNAs (Molecular Devices, Sunnyvale, Calif., U.S.A.), as well as cDNAs of prostanoid receptors, were cloned into a pCEP4 vector with a hygromycin B selection marker. Transfection into HEK-293 EBNA (Epstein-Barr virus nuclear antigen) cells was achieved by the FuGENE 6 transfection Reagent (Roche Applied Science, Indianapolis, Ind., USA). Stable transfectants were selected according to hygromycin resistance. Because Gqs and Gqi contained an HA epitope, G-protein expression was detected by Western blotting analysis using anti-mouse HA monoclonal antibody and horseradish peroxidase (HRP)-conjugated secondary antibody, while functional expression of prostanoid receptors was detected by FLIPR screening (Matias et al., 2004). These stable cell lines were validated using previously published antagonists at 10 μM against serial dilutions of standard agonists by FLIPR functional assays for Ca^2+ Signaling (as described below).
(§4) Ca^2+ signaling studies were performed using a FLIPR TETRA system (Molecular Devices, Sunnyvale, Calif., USA) in the 384-format. This is a high-throughput instrument for cell-based assays to monitor Ca^2+ signaling associated with GPCRs and ion channels. Cells were seeded at a density of 5×10^4 cells/well in BioCoat poly-D-lysine coated, black wall, clear bottom 384-well plates (BD Biosciences, Franklin lakes, NJ, USA) and allowed to attach overnight in an incubator at 37° C. The cells were then washed twice with HBSS-HEPES buffer (Hanks' balanced salt solution without bicarbonate and phenol red, 20 mM HEPES, pH 7.4) using an ELx405 Select CW Microplate Washer (BioTek, Winooski, Vt., USA). After 60 min of dye-loading in the dark using the Ca^2+-sensitive dye Fluo-4AM (Invitrogen, Carlsbad, Calif., USA), at a final concentration of 2×10^−6M, the plates were washed 4 times with HBSS-HEPES buffer to remove excess dye and leaving 50 μl of buffer in each well. The plates were then placed in the FLIPR TETRA instrument and allowed to equilibrate at 37° C. AGN-211377 was added in a 25 μl volume to each well to give final concentrations of 0.1 μl. M, 0.4M, 1 μM, 3 μl. M, 10 μl. M, and 30 μl. M; or 0.067 μM, 0.4M, 0.67 μM, and 1 μM for cells over-expressing TP receptors. After 4.5 minutes, a 7-point serial dilution of the standard agonist for the corresponding receptor, in a 25 μl volume was injected at the final concentrations from 10^−11M to 10^−5M in 10-fold serial dilution increments for cells expressing human recombinant DP1, EP1, EP2, EP3, EP4, FP, and IP receptors. The dose range for the standard agonist for human recombinant TP receptors was from 10^−12M to 10^−6M. HBSS-HEPES buffer was used as the negative control for the standard agonists. Cells were excited with LED (light emitting diode) excitation at 470-495 nm and emission was measured through an emission filter at 515-575 nm. Assay plates were read for 3.5 minutes using the FLIPR^TETRA. The peak increase in fluorescence intensity was recorded for each well. On each plate, negative controls, dose response of positive controls, and co-treatments of antagonist-agonist for each dose were in triplicates. Standard agonists were as follows: DP=BW 245C, EP1-EP4=PGE2, FP=17-phenyl-PGF2a, IP=Cicaprost, and TP=U-46619. […]

Assay [2] deals with T2, human prostanoid EP2 receptor (Homo sapiens, UniProt P43116).
T2 construct: expressed in transfected cells
T2 sequence (P43116 whole entry): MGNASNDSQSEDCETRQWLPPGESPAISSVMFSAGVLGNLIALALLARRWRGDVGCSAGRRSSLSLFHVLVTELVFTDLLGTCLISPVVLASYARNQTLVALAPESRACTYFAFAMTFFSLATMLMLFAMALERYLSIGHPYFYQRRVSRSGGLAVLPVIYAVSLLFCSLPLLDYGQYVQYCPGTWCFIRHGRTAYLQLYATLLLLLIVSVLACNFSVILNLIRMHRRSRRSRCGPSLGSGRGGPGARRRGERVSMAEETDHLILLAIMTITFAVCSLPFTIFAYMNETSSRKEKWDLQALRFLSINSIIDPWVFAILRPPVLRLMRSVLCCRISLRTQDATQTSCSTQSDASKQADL
Briefly: FLIPR Ca2+ signaling antagonist assay, EP2 receptor stable cell line. As to conditions: human recombinant EP2 + chimeric Gqs in HEK-293 EBNA cells; standard agonist PGE2; NA = no antagonism or Kb>=10,000 nM. As for the experimental part:
as §1, §2, §3, §4

The target in assay [3] is T3, human prostanoid FP receptor (Homo sapiens, UniProt P43088).
T3 construct: expressed in transfected cells
T3 sequence (P43088 whole entry): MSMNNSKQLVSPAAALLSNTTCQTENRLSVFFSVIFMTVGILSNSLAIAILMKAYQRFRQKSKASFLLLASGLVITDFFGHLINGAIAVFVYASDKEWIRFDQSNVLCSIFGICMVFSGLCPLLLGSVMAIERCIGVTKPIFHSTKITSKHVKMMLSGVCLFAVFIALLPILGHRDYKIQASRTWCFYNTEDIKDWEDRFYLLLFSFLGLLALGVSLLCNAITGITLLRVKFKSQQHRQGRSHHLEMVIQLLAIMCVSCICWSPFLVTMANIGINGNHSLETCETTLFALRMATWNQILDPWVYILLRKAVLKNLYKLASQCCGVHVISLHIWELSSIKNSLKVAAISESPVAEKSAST
Briefly: FLIPR Ca2+ signaling antagonist assay, FP receptor stable cell line. As to conditions: human recombinant FP in HEK-293 EBNA cells; standard agonist 17-phenyl-PGF2a; NA = no antagonism or Kb>=10,000 nM. The method, then: as §1, §2, §3, §4

For assay [4], the target named is T4, human prostanoid EP1 receptor (Homo sapiens, UniProt P34995).
T4 construct: expressed in transfected cells
T4 sequence (P34995 1-402): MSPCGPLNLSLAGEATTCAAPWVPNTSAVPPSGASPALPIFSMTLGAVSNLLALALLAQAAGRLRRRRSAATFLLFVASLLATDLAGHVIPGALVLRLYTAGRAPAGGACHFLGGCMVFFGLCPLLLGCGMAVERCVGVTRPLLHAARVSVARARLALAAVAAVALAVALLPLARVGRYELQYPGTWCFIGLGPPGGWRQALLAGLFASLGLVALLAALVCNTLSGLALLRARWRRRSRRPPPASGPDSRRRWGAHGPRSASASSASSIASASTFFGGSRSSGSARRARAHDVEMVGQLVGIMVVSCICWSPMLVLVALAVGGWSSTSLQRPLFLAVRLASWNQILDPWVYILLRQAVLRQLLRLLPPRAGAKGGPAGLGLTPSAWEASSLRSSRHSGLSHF
Briefly: FLIPR Ca2+ signaling antagonist assay, EP1 receptor stable cell line. As to conditions: human recombinant EP1 in HEK-293 EBNA cells; standard agonist PGE2; NA = no antagonism or Kb>=10,000 nM. As for the experimental part: as §1, §2, §3, §4

What is called Kb is the equilibrium dissociation constant of an antagonist, usually derived from a functional assay. Take `CC(C)Cn1ncc2cc(OC(F)(F)F)cc(Cn3cnc4cc(C(=O)O)ccc43)c21` [Compound 56, 1-(1-Isobutyl-5-trifluoromethoxy-1H-indazol-7-ylmethyl)-1H-benzoimidazole-5-carboxylic acid]: the Kb in assay [1] was 30 nM; in assay [2], > 10000 nM; in assay [3], > 10000 nM; in assay [4], 9000 nM.
With `CC(C)Cn1ncc2cc(Cl)cc(Cc3ncc4cc(C(=O)O)ccn34)c21` [Compound 61, 3-[(5-Chloro-1-isobutyl-indazol-7-yl)methyl]imidazo[1,5-a]pyridine-7-carboxylic acid], the Kb in assay [1] was > 10000 nM; in assay [2] it was > 10000 nM; in assay [3], 600 nM; in assay [4] it was > 10000 nM.
For the compound `CC(C)Cn1ncc2cc(Cl)cc(Cn3nc(N)c4cc(C(=O)O)ccc43)c21` [Compound 68, 3-Amino-1-[(5-chloro-1-isobutyl-indazol-7-yl)methyl]indazole-5-carboxylic acid], the Kb was 1300 nM in assay [1], > 10000 nM in assay [2], 35 nM in assay [3] and > 10000 nM in assay [4].
`CNc1nn(Cc2cc(Cl)cc3cnn(CC(C)C)c23)c2ccc(C(=O)O)cc12` [Compound 70, 1-[(5-Chloro-1-isobutyl-indazol-7-yl)methyl]-3-(methylamino)indazole-5-carboxylic acid]: the Kb in assay [1] came to 300 nM; in assay [2], 7000 nM; in assay [3] it was 17 nM; in assay [4] it was 2300 nM.
